Results published in US11833160B2, “Ursodeoxycholic acid derivatives as HDAC inhibitors for the treatment of polycystic diseases” (UNIVERSIDAD DEL PAIS VASCO/EUSKAL HERRIKO UNIBERTSITATEA, priority 2017, dated 2023).

Assays:
Assay type in all cases: biochemical
Settings in all cases: 10-dose, 3-fold serial dilution, triplicate
human HDAC1 = biological target: T1, human HDAC1 (Homo sapiens, UniProt Q13547); assay: HDAC1 enzymatic activity assay (fluorogenic peptide)
T1 construct: GST (C); purchased BioMol SE-456; host or cells: baculovirus / Sf9 cells
T1 sequence (Q13547 whole entry): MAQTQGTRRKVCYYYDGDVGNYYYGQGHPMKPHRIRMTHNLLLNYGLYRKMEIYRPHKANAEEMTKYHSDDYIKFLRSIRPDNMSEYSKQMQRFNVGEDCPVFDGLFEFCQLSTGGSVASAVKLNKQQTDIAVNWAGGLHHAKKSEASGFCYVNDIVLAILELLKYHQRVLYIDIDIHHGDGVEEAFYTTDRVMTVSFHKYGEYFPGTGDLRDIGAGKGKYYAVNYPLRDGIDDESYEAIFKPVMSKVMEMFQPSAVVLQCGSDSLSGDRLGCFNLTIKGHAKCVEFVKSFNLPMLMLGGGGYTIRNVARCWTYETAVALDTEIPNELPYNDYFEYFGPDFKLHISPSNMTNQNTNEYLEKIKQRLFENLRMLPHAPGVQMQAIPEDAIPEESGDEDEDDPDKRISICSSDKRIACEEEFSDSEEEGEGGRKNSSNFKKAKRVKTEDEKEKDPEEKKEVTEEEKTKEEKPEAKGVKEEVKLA
Method: (§1) Peptide substrates: all HDAC assays were performed using acetylated peptide substrates labeled with 7-amino-4-methylcoumarin (AMC): • Substrate for isoforms HDAC1, 2, 3, 6, 10, 11, and HeLa nuclear extract assays: acetylated fluorogenic peptide from p53 residues 379-382 (RHKKAc). • Substrate for isoforms HDAC4, 5, 7, 9: fluorogenic Boc-L-Lys (s-trifluoroacetyl)-AMC. • Substrate for HDAC8 assays: acetylated fluorogenic peptide from p53 residues 379-382 (RHKAcKAc).
(§2) 50 μl of peptide substrate (see “peptide substrates” section above) and an optimal concentration of the corresponding enzyme (see “enzymes” section above) in the assay buffer at a final DMSO concentration of 1% were incubated in the presence of gradient concentrations of inhibitors (10-dose IC50 mode with 3-fold serial dilution) at 30° C. for 2 hours. The reactions were carried out in a 96-well microplate for fluorometry in a 50 μl reaction volume. After the deacetylation reaction, Fluor-de-Lys-Developer (BioMol Cat. #KI-105) was added to each well to digest the deacetylated substrate, thereby producing the fluorescent signal. The reaction was carried out for 45 minutes at 30° C. with 5% CO2; the fluorescent signal was then measured using an excitation wavelength of 360 nm and an emission wavelength of 460 nm in a microplate-reading fluorometer (GeminiXS, Molecular Devices, Sunnyvale, CA). A curve of deacetylated standard (Biomol, Cat. #KI-142; made from 100 μM with 1:2 dilution and 10 doses, 6 μl) allowed the conversion of the fluorescent signal into micromoles of deacetylated product. All experiments were performed in triplicate. The IC50s were calculated by fitting the experimental data to dose-response curve. DMSO was used as negative control; Trichostatin A (Biomol Cat. #GR-309) was used as positive control inhibitor.
(§3) Enzymatic activity assays were carried out in 11 HDAC enzymes, including HDAC6.

human HDAC3/NcoR2 = biological target: T2, human HDAC3/NcoR2 (Homo sapiens, UniProt O15379); assay: HDAC3 enzymatic activity assay (fluorogenic peptide)
T2 construct: human HDAC3 complex, full length with His C-terminal tag, MW=49.7 kDa; His (C); purchased BioMol SE-507; host or cells: baculovirus expression system
T2 sequence (O15379 whole entry): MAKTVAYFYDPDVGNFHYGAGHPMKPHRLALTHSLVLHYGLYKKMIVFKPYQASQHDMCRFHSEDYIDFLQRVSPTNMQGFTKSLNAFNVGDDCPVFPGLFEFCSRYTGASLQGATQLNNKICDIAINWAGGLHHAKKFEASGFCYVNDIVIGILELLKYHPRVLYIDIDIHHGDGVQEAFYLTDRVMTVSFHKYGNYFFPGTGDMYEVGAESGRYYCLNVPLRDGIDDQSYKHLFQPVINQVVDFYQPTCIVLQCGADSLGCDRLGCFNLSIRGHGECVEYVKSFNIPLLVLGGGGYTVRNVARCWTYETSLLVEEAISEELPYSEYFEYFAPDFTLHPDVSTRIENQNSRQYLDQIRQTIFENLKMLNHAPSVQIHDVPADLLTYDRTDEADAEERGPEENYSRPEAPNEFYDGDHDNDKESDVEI
T2 sequence (Q9Y618 395-489 partner limits assumed): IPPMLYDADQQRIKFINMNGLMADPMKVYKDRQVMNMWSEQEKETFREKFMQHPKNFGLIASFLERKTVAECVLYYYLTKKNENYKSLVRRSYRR
Method: as §1
(§4) 50 μl of peptide substrate (see “peptide substrates” section above) and an optimal concentration of the corresponding enzyme (see “enzymes” section above) in the assay buffer at a final DMSO concentration of 1% were incubated in the presence of gradient concentrations of inhibitors (10-dose IC50 mode with 3-fold serial dilution) at 30° C. for 2 hours. The reactions were carried out in a 96-well microplate for fluorometry in a 50 μl reaction volume. After the deacetylation reaction, Fluor-de-Lys-Developer (BioMol Cat. #KI-105) was added to each well to digest the deacetylated substrate, thereby producing the fluorescent signal. The reaction was carried out for 45 minutes at 30° C. with 5% CO2; the fluorescent signal was then measured using an excitation wavelength of 360 nm and an emission wavelength of 460 nm in a microplate-reading fluorometer (GeminiXS, Molecular Devices, Sunnyvale, CA). […]

human HDAC2 = biological target: T3, human HDAC2 (Homo sapiens, UniProt Q92769); assay: HDAC2 enzymatic activity assay (fluorogenic peptide)
T3 construct: His (C); purchased BioMol SE-500; host or cells: baculovirus / Sf9 cells
T3 sequence (Q92769 whole entry): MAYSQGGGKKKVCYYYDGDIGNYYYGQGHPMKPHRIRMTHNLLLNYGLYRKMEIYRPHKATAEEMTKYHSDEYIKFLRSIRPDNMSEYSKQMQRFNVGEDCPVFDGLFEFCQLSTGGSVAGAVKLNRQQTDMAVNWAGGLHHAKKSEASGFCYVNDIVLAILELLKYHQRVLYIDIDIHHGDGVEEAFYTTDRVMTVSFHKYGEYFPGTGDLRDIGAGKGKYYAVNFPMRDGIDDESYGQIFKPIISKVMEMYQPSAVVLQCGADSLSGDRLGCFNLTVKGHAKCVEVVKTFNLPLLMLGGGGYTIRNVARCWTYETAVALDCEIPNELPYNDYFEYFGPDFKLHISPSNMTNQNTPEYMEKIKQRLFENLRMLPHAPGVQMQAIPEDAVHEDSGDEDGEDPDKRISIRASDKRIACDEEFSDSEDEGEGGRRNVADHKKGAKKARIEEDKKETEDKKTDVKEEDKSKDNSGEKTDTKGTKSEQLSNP
Method: as §1, §2, §3

human HDAC8 = biological target: T4, human HDAC8 (Homo sapiens, UniProt Q9BY41); assay: HDAC8 enzymatic activity assay (fluorogenic peptide)
T4 construct: purchased BioMol SE-145; host or cells: E. coli
T4 sequence (Q9BY41 1-377): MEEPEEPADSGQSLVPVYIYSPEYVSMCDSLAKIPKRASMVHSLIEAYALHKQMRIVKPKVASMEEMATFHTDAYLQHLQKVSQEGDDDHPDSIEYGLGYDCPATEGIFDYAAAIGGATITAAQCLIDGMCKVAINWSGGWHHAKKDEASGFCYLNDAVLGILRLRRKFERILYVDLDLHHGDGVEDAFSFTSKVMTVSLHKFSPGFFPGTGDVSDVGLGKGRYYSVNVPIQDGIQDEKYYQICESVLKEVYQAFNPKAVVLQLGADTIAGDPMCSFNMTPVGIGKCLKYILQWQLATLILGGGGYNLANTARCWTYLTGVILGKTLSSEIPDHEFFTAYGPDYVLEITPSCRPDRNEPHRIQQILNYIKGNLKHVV
Method: as §1, §2, §3

human HDAC9 = human HDAC9 (Homo sapiens, UniProt Q9UKV0); assay: HDAC9 enzymatic activity assay (fluorogenic peptide)
Sequence of human HDAC9 (Q9UKV0 604-1066 isoform Q9UKV0-5): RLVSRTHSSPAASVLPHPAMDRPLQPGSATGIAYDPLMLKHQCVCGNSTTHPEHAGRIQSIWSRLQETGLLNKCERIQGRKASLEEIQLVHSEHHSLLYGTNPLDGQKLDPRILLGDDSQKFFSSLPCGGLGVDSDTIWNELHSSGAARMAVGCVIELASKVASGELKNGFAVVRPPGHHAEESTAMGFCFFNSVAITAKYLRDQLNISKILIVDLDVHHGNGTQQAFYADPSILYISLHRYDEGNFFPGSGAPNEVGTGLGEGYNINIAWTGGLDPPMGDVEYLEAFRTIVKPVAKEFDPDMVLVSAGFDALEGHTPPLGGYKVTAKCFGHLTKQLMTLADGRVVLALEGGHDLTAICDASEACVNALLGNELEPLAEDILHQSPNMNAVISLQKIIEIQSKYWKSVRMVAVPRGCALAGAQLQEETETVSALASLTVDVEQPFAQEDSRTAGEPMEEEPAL
Method: as §1, §4

human HDAC10 = biological target: T5, human HDAC10 (Homo sapiens, UniProt Q969S8); assay: HDAC10 enzymatic activity assay (fluorogenic peptide)
T5 sequence (Q969S8 1-631): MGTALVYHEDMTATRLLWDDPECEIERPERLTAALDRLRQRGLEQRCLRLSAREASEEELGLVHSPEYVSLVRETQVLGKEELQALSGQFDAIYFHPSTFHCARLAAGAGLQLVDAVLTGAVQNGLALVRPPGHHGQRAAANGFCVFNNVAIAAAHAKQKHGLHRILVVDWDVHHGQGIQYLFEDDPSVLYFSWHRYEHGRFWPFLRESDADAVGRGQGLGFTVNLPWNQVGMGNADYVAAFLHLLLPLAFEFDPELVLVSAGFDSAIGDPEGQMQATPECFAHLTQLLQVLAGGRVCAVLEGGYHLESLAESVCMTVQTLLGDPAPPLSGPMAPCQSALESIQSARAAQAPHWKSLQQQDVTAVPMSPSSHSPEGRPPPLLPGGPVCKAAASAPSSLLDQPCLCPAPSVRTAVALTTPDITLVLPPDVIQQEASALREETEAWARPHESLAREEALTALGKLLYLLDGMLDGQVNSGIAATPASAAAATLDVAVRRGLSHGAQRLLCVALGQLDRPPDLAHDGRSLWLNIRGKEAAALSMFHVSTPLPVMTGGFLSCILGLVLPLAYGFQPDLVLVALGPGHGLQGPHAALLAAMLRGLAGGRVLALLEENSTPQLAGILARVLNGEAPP
Method: as §1, §4

SMILES | IC50 (human HDAC1) | IC50 (human HDAC3/NcoR2) | IC50 (human HDAC2) | IC50 (human HDAC8) | IC50 (human HDAC9) | IC50 (human HDAC10)
C[C@H](CCC(=O)NCC(=O)NCc1ccc(C(=O)NO)cc1)[C@H]1CC[C@H]2[C@@H]3[C@@H](O)C[C@@H]4C[C@H](O)CC[C@]4(C)[C@H]3CC[C@]12C [Ib, 4-((2-((R)-4 ((3R,5S,7S,8R,9S,10S,13R,14S,17R)-3,7-dihydroxy-10,13-dimethylhexadecahydro-1H-cyclopenta[a]phenanthren-17-yl)pentanamide)acetamido)methyl)-N-hydroxybenzamide] | 9.01 µM | 9.99 µM | 13.2 µM | 0.615 µM | 11.6 µM | 21.8 µM
C[C@H](CCC(=O)NCc1ccc(C(=O)NO)cc1)[C@H]1CC[C@H]2[C@@H]3[C@@H](O)C[C@@H]4C[C@H](O)CC[C@]4(C)[C@H]3CC[C@]12C [Compound Ia] | 10.1 µM | 8.37 µM | 18.8 µM | 0.894 µM | 13.4 µM | 24.5 µM
